{
  "source": "paper PMC6447857",
  "about": "“Structural Study of Agmatine Iminohydrolase From Medicago truncatula, the Second Enzyme of the Agmatine Route of Putrescine Biosynthesis in Plants” (Frontiers in Plant Science, 2019)",
  "biological_target": "T1, MtAIH (Medicago truncatula, UniProt G7JT50)",
  "T1 construct": "gene AIH; ORF from codon 11 (leaf cDNA), pMCSG68, N-terminal His6-tag removed by TEV, Ser-Asn-Ala linker kept; E. coli BL21 Gold; homodimer (81 kDa by MALS)",
  "T1 sequence (G7JT50 11-374)": "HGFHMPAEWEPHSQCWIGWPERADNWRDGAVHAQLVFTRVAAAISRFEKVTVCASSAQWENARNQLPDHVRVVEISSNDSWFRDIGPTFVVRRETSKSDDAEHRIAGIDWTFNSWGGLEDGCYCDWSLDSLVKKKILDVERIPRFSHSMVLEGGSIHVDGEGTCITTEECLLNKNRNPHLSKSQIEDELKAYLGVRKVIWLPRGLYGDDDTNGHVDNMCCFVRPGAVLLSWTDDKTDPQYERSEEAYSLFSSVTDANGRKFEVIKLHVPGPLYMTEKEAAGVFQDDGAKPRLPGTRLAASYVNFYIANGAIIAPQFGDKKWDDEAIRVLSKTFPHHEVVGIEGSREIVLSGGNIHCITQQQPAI",
  "test": "X-ray crystallography (cocrystallization), […] A",
  "format": "binding",
  "details": "10 mM ligand, Morpheus Screen, pH 6.5; active site; reaction product analog; bound in three of four chains",
  "data": [
    {"smiles": "NCCCCCC(N)=O", "note": "[AHX, 6-aminohexanamide]", "values": [
      {"measurement": "X-ray crystallography (cocrystallization), 2.20 A", "result": "The MtAIH-AHX structure was obtained by cocrystallization and presents the bound AHX"}
    ]}
  ]
}
